Measured values published in PubChem BioAssay (NCI).
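How tested: cells in 96-well plates exposed to compound for 48 hours at five concentrations. The concentration for full growth arrest is given as TGI.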 Where a SMILES comes first, the peptide text is derived from it. [ ]: non-standard residue; d: D form. The star is where a group is joined. ξ: configuration not given here. X3 = COc1ccc(C(N*)c2ccc(OC)cc2)cc1; NMeF = CN[C@@H](Cc1ccccc1)C(=O)O; NMeD = CN[C@@H](CC(=O)O)C(=O)O; NMeV = CN[C@H](C(=O)O)C(C)C; ξNMeV = CNC(C(=O)O)C(C)C; Boc = CC(C)(C)OC(=O)*; ξNMeA = CNC(C)C(=O)O; ξV = CC(C)C(N)C(=O)O

Columns and labels:
Test in all cases: inhibition of tumour cell growth, NCI panel, 48 h
MDA-N = test system: MDA-N
DMS 114 small cell lung = test system: DMS 114 small cell lung
DMS 273 small cell lung = test system: DMS 273 small cell lung
HOP-18 NSCLC = test system: HOP-18 NSCLC
LXFL 529 NSCLC = test system: LXFL 529 NSCLC
M19-MEL melanoma = test system: M19-MEL melanoma
SNB-78 CNS = test system: SNB-78 CNS
XF 498 CNS = test system: XF 498 CNS
RXF-631 renal = test system: RXF-631 renal

Work on `O=C1CN(c2cccc(Cl)c2)C(=O)CN1CCN1CC(=O)N(c2cccc(Cl)c2)CC1=O` yielded a TGI (MDA-N) of over 100 µM.

`CC(=O)O/N=C(/C)c1ccccc1O` showed a TGI (DMS 114 small cell lung) of over 100 µM, a TGI (DMS 273 small cell lung) of over 100 µM and a TGI (HOP-18 NSCLC) of over 100 µM. The TGI (LXFL 529 NSCLC) was over 100 µM, the TGI (M19-MEL melanoma) was over 100 µM and the TGI (SNB-78 CNS) was over 100 µM. The TGI (XF 498 CNS) was over 100 µM.

For `O=C(/C=C/c1ccc([N+](=O)[O-])cc1)c1ccc(NCc2nc3ccccc3[nH]2)cc1`, the TGI (DMS 114 small cell lung) was 7.44 µM, the TGI (DMS 273 small cell lung) was 13.6 µM and the TGI (HOP-18 NSCLC) was 31.3 µM. For the same compound, the TGI (LXFL 529 NSCLC) was 8.61 µM, the TGI (M19-MEL melanoma) was 15.3 µM and the TGI (RXF-631 renal) was 19.7 µM. It also gave a TGI (SNB-78 CNS) of 29 µM and a TGI (XF 498 CNS) of 20.2 µM.

With `Cc1cc2c(C)[nH]nc2c(C(=O)O)c1C` the TGI (DMS 114 small cell lung) was over 100 µM, the TGI (DMS 273 small cell lung) was over 100 µM and the TGI (LXFL 529 NSCLC) was over 100 µM. It also gave a TGI (M19-MEL melanoma) of over 100 µM, a TGI (SNB-78 CNS) of over 100 µM and a TGI (XF 498 CNS) of over 100 µM.

In the case of `C/C(=N/Nc1ccc([N+](=O)[O-])cc1[N+](=O)[O-])C(CC(C(=O)NCc1ccccc1)/C(C)=N\Nc1ccc([N+](=O)[O-])cc1[N+](=O)[O-])C(=O)NCc1ccccc1` (stereo not given), the TGI (DMS 114 small cell lung) is reported as 23.8 µM, the TGI (DMS 273 small cell lung) is reported as 20.4 µM and the TGI (HOP-18 NSCLC) is reported as 9.48 µM. It also gave a TGI (LXFL 529 NSCLC) of 23.6 µM, a TGI (M19-MEL melanoma) of 23.9 µM and a TGI (RXF-631 renal) of 20 µM. The TGI (SNB-78 CNS) was 31 µM.

`CC(=O)OCCOCNC(=S)N/N=C(\C)c1cnccn1` was tested, and the TGI (DMS 114 small cell lung) was 51.4 µM, the TGI (DMS 273 small cell lung) was 67 µM and the TGI (HOP-18 NSCLC) was 97.5 µM. The TGI (LXFL 529 NSCLC) was over 100 µM, the TGI (M19-MEL melanoma) was 46.3 µM and the TGI (SNB-78 CNS) was over 100 µM. For the same compound, the TGI (XF 498 CNS) was over 100 µM.

`c1ccc(NCn2cnc3ccccc32)cc1` gave a TGI (DMS 114 small cell lung) of over 100 µM, a TGI (DMS 273 small cell lung) of over 100 µM and a TGI (HOP-18 NSCLC) of over 100 µM. The TGI (LXFL 529 NSCLC) was over 100 µM, the TGI (M19-MEL melanoma) was over 100 µM and the TGI (RXF-631 renal) was over 100 µM. The TGI (SNB-78 CNS) was over 100 µM and the TGI (XF 498 CNS) was over 100 µM.

`O=[N+]([O-])c1ccc(Cl)cc1N/N=C/c1ccnc2ccccc12` showed a TGI (MDA-N) of over 100 µM.

`CCOC(=S)SCC(=O)O` gave a TGI (MDA-N) of over 100 µM.

For `N#C/C(=C\c1cccc(Cl)c1Cl)c1ccccc1`, the TGI (DMS 114 small cell lung) was over 73.1 µM, the TGI (DMS 273 small cell lung) was over 54.1 µM and the TGI (HOP-18 NSCLC) was over 90.4 µM. It also gave a TGI (LXFL 529 NSCLC) of over 100 µM, a TGI (M19-MEL melanoma) of over 100 µM and a TGI (RXF-631 renal) of over 100 µM. For the same compound, the TGI (SNB-78 CNS) was over 100 µM and the TGI (XF 498 CNS) was over 57.4 µM.

`COC(=O)CC(c1ccccc1)C1(c2ccccc2)SCCS1` (stereo not given) gave a TGI (DMS 114 small cell lung) of over 290 µM, a TGI (DMS 273 small cell lung) of over 290 µM and a TGI (HOP-18 NSCLC) of over 290 µM. It also gave a TGI (LXFL 529 NSCLC) of over 290 µM, a TGI (M19-MEL melanoma) of over 290 µM and a TGI (RXF-631 renal) of over 290 µM. For the same compound, the TGI (XF 498 CNS) was over 290 µM.

Compound `COc1ccc(OC)c(N2CC(N)C2=O)c1` (stereo not given) has a TGI (DMS 273 small cell lung) of over 100 µM, a TGI (HOP-18 NSCLC) of over 100 µM and a TGI (M19-MEL melanoma) of over 100 µM. The TGI (RXF-631 renal) was over 100 µM and the TGI (XF 498 CNS) was over 100 µM.

`COc1ccc(C(NC(=O)C[C@@H](C(=O)N(C)C(C)C(=O)O)N(C)C(=O)[C@@H]2CCCN2C(=O)[C@H](C(C)C)N(C)C(=O)C(C(C)C)N(C)C(=O)[C@H](Cc2ccccc2)N(C)C(=O)C(NC(=O)OC(C)(C)C)C(C)C)c2ccc(OC)cc2)cc1` (stereo not given in full) (Boc-[ξV][NMeF][ξNMeV][NMeV]P[NMeD](X3)[ξNMeA]-OH) showed a TGI (DMS 114 small cell lung) of 33.4 µM, a TGI (DMS 273 small cell lung) of 30.9 µM and a TGI (LXFL 529 NSCLC) of 27.9 µM. It also gave a TGI (M19-MEL melanoma) of 34.4 µM, a TGI (MDA-N) of 32.7 µM and a TGI (SNB-78 CNS) of 36.5 µM. For the same compound, the TGI (XF 498 CNS) was 29.5 µM.

In the case of `COc1ccc(C)cc1-c1cc(Sc2ccccc2)c(-c2cc(C)ccc2OC)o1`, the TGI (DMS 114 small cell lung) is reported as over 31.6 µM, the TGI (DMS 273 small cell lung) is reported as over 31.6 µM and the TGI (HOP-18 NSCLC) is reported as over 31.6 µM. It also gave a TGI (LXFL 529 NSCLC) of over 31.6 µM, a TGI (M19-MEL melanoma) of over 31.6 µM and a TGI (RXF-631 renal) of over 31.6 µM. The TGI (SNB-78 CNS) was over 31.6 µM and the TGI (XF 498 CNS) was over 100 µM.

For `Cc1ccc(Oc2ccc(C)cc2N)cc1`, the TGI (DMS 114 small cell lung) was over 100 µM, the TGI (DMS 273 small cell lung) was over 100 µM and the TGI (HOP-18 NSCLC) was over 100 µM. For the same compound, the TGI (LXFL 529 NSCLC) was over 100 µM, the TGI (M19-MEL melanoma) was over 100 µM and the TGI (SNB-78 CNS) was over 100 µM.

`COc1cc(C2CC(C)(O)Oc3cc4c(cc32)OCO4)cc(OC)c1OC` (stereo not given) showed a TGI (MDA-N) of 0.43 µM.

`COc1cccc(C2SC(N)=Nc3c2c(C)nn3C(=O)c2ccccc2O)c1` (stereo not given) showed a TGI (MDA-N) of over 10 µM.

Work on `CCc1c(OC(C)=O)c2c(NC3OCC(OC(C)=O)C(OC(C)=O)C3OC(C)=O)nc(SC)nc2oc1=O` (stereo not given) yielded a TGI (HOP-18 NSCLC) of over 100 µM, a TGI (LXFL 529 NSCLC) of over 100 µM and a TGI (M19-MEL melanoma) of over 100 µM. It also gave a TGI (RXF-631 renal) of over 100 µM, a TGI (SNB-78 CNS) of over 100 µM and a TGI (XF 498 CNS) of over 100 µM.
